In ChEMBL document CHEMBL2062491, “Absolute structures of monoterpenoids with a δ-lactone-containing skeleton from Ligularia hodgsonii” (J Nat Prod, 2012):

Columns and labels:
Assay type in all cases: functional, cell-based
SMMC-7721 = assay: Cytotoxicity against human SMMC7721 cells after 48 hrs by SRB assay
HeLa = assay: Cytotoxicity against human HeLa cells after 48 hrs by SRB assay
HL-60 = assay: Cytotoxicity against human HL60 cells after 48 hrs by SRB assay

Row | Compound | IC50 (SMMC-7721; smmc-7721) [µM] | IC50 (HeLa; hela) [µM] | IC50 (HL-60; hl-60) [µM] | IC50 (SMMC-7721; Homo sapiens, SMMC-7721, 48 h, read-out: IC50) [µM] | IC50 (HeLa; Homo sapiens, HeLa, 48 h, read-out: IC50) [µM] | IC50 (HL-60; Homo sapiens, HL-60, 48 h, read-out: IC50) [µM]
1 | COC(=O)[C@]1(C)OC(=O)[C@]2(C[C@H]1C)O[C@@H]2C [LIGUHODGCINS B] | 162 | 168 | 151 |  |  | 
2 | CO[C@@]12[C@H](COC(N)=O)C3=C(C(=O)C(C)=C(N)C3=O)N1C[C@@H]1N[C@@H]12 [MITOMYCIN] |  |  |  | 5.6 | 3.4 | 1.8
3 | COC(=O)[C@]1([C@H](C)Cl)C[C@@H](C)[C@@](C)(OC(C)=O)C(=O)O1 [LIGUHODGCINS A] | 156 | 171 | 141 |  |  | 
